According to patent US20260207794A1, “NOVEL COMPOUNDS FOR DIAGNOSIS” (AC IMMUNE SA, priority 2022, published 2026):
Counter-ions that a name gives are not always drawn.

Target: T1, PD brain-derived alpha-synuclein aggregates (Homo sapiens, UniProt P37840)
T1 construct: from tissue; host or cells: human PD donor brain, sarkosyl-insoluble pellet
Assay: Micro-radiobinding competition assay
Format: binding
Details: for Competition at 100 nM (%): 100 nM example compound; for Competition at 100 nM (%) / Competition at 1 μM (%): competition over [3H]-alpha-syn reference ligand (20 nM or 30 nM), human PD brain-derived a-syn aggregates; for Competition at 1 μM (%): 1 μM example compound; for Ki: mean of two independent experiments, PD brain-derived homogenates from two different donors
Experimental: The procedure was adapted from the protocol described in Spillantini et al., 1998. Frozen tissue blocks from PD donors were thawed on ice and homogenized using a glass dounce homogenizer. The homogenate was then centrifuged at 11,000×g (12,700 RPM) in an ultracentrifuge (Beckman, XL100K) for 20 minutes at 4° C. using a pre-cooled 70.1 rotor (Beckman, 342184). Pellets were resuspended in extraction buffer [10 mM Tris-HCl pH 7.4, 10% sucrose, 0.85 M NaCl, 1% protease inhibitor (Calbiochem 539131), 1 mM EGTA, 1% phosphatase inhibitor (Sigma P5726 and P0044)] and centrifuged at 15,000×g (14,800 RPM, a 70.1 Ti rotor) for 20 minutes at 4° C. Pellets were discarded and sarkosyl (20% stock solution, Sigma L7414) was added to the supernatants to a final concentration of 1% and stirred at room temperature for one hour. This solution was then centrifuged at 100,000×g (38,000 RPM, 70.1 Ti rotor) for one hour at 4° C. Pellets containing enriched alpha-synuclein aggregates were resuspended in PBS per gram of brain initially used and stored at −80° C. until use.
PD brain-derived alpha-synuclein aggregates were spotted onto microarray slides. The slides were incubated with [^3H]-alpha-synuclein reference at 20 nM or 30 nM and the example compounds (non-radiolabelled) at 1 μM and 100 nM. In some cases, the non-radiolabelled example compounds were further assessed for a range of different concentrations, varying from 0.05 nM to 2 μM. After incubation, slides were washed and scanned by a real-time autoradiography system (BeaQuant, ai4R). Quantification of signal was performed by using the image analysis software Beamage (ai4R).
Non-specific signal was determined with an excess of non-radiolabelled alpha-syn reference compound (2 μM) and specific binding was calculated by subtracting the non-specific signal from the total signal. Competition was calculated as percentage, where 0% was defined as the specific binding in the presence of vehicle and 100% as the values obtained in the presence of excess of the non-radiolabelled alpha-syn reference compound. Ki values were calculated in GraphPad Prism7 by applying a nonlinear regression curve fit using a one site, specific binding model. All measurements were performed with at least two technical replicates. For compounds tested in more than one experiment, the mean of the replicates or Ki values in independent experiments is reported.

Compound: Cn1cc(N2Cc3cc(-c4ccc(N5CC[C@H](F)C5)nc4)cn3C2=O)cn1 [Example 5, (S)-6-(6-(3-fluoropyrrolidin-1-yl)pyridin-3-yl)-2-(1-methyl-1H-pyrazol-4-yl)-1,2-dihydro-3H-pyrrolo[1,2-c]imidazol-3-one Hydrogen Chloride Salt]
- Competition at 100 nM (%): 87%
- Competition at 1 μM (%): 102%

Compound: Cn1cc(N2Cc3cc(-c4ccc(N5CC[C@@H](F)C5)nc4)cn3C2=O)cn1 [Example 6, (R)-6-(6-(3-fluoropyrrolidin-1-yl)pyridin-3-yl)-2-(1-methyl-1H-pyrazol-4-yl)-1,2-dihydro-3H-pyrrolo[1,2-c]imidazol-3-one Hydrogen Chloride Salt]
- Competition at 100 nM (%): 82%
- Competition at 1 μM (%): 100%

Compound: O=C1N(c2cccnc2)Cc2nc(-c3ccc(N4CC[C@H](F)C4)nc3)cn21 [Example 3, (S)-2-(6-(3-fluoropyrrolidin-1-yl)pyridin-3-yl)-6-(pyridin-3-yl)-6,7-dihydro-5H-imidazo[1,5-a]imidazol-5-one Hydrochloride]
- Competition at 100 nM (%): 59%
- Competition at 1 μM (%): 85%
- Ki: 97 nM

Compound: O=C1N(c2cccnc2)Cc2nc(-c3ccc(N4CC[C@@H](F)C4)nc3)cn21 [Example 2, (R)-2-(6-(3-fluoropyrrolidin-1-yl)pyridin-3-yl)-6-(pyridin-3-yl)-6,7-dihydro-5H-imidazo[1,5-a]imidazol-5-one Hydrochloride]
- Competition at 100 nM (%): 63%
- Competition at 1 μM (%): 86%
- Ki: 124 nM

Compound: O=C1N(c2cccnc2)Cc2cc(-c3ccc(N4CC[C@H](F)C4)nc3)cn21 [Example 7, (S)-6-(6-(3-fluoropyrrolidin-1-yl)pyridin-3-yl)-2-(pyridin-3-yl)-1,2-dihydro-3H-pyrrolo[1,2-c]imidazol-3-one Hydrogen Chloride Salt]
- Competition at 100 nM (%): 69%
- Competition at 1 μM (%): 85%

Compound: O=C1N(c2cccnc2)Cc2cc(-c3ccc(F)nc3)cn21 [Example 4, 6-(6-fluoropyridin-3-yl)-2-(pyridin-3-yl)-1H-pyrrolo[1,2-c]imidazol-3(2H)-one]
- Competition at 100 nM (%): 51%
- Competition at 1 μM (%): 52%

Compound: O=C1N(c2cccnc2)Cc2cc(-c3ccc(N4CC[C@@H](F)C4)nc3)cn21 [Example 1, (R)-6-(6-(3-fluoropyrrolidin-1-yl)pyridin-3-yl)-2-(pyridin-3-yl)-1H-pyrrolo[1,2-c]imidazol-3(2H)-one Hydrochloride]
- Competition at 100 nM (%): 75%
- Competition at 1 μM (%): 95%
